The text below walks through data of article PMC11862611 (RSC Medicinal Chemistry, 2025).

Assay [1] relates to L. major promastigotes (FV1) WT. As to the kind of experiment: anti-promastigote assay, L. major (resazurin). As to conditions: Leishmania major; promastigote parasites (Table 1); read-out: L.mj EC50. It is filed as cell-based. As to the method:
4.2.3.1. Anti-promastigote assays
L. major promastigotes (FV1) WT, PX and Δ LCB2 in Schneider’s insect medium (100 μL at 1 × 106 mL−1) were incubated in 96-well plates with compounds in triplicate (amphotericin B and cycloheximide were used as positive controls, and untreated parasites with 1% DMSO as a negative control) at 26 °C for 48 h.
Resazurin Solution (10 μL) was then added and the plate incubated at 26 °C for 4 h prior to measurement using a fluorescence plate reader (555 - 585 nm). EC50 values were calculated using sigmoidal regression analysis (GraphPad Prism). […]
(§1) well-1 in a 24-well plate with round cover slips and incubated for 24 h at 37 °C and 5% CO2. […]

Assay [2] deals with L. amazonensis promastigotes. Description: anti-promastigote assay, L. amazonensis (resazurin). It is filed as cell-based. The settings on record: Leishmania amazonensis; promastigote parasites (Table 1); read-out: L.amaz EC50. As to the method: 4.2.3.1. Anti-promastigote assays […]
Protocol 1: L. amazonensis promastigotes in Medium 199 (100 μL at 5 × 105 mL−1) were incubated in 96-well plates with compounds in triplicate (amphotericin B was used as a positive control, and untreated parasites with DMSO as a negative control) at 26 °C for 72 h. Resazurin Solution (10 μL) was then added and the plate incubated at 26 °C for 4 h prior to measurement using a fluorescence plate reader (555 - 585 nm). EC50 values were calculated using sigmoidal regression analysis (GraphPad Prism).
Protocol 2: Same procedure as above with the modification of a 48 h incubation time as opposed to 72 h and Leishmania amazonensis (MHOM/Br/75/JOSEFA) in Schneider’s insect medium in the place of Leishmania amazonensis (MHOM/Br/75/JOSEFA) in Medium 199. […]
as §1

In assay [3] the test system is L. major PX promastigotes. As to the kind of experiment: on-target growth inhibition, add-back cell line (PX). The format is cell-based, Leishmania major.
In assay [4] the target is T1, LmjIPCS (Leishmania major, UniProt E9AFX2).
T1 construct: made in house
T1 sequence (E9AFX2 whole entry): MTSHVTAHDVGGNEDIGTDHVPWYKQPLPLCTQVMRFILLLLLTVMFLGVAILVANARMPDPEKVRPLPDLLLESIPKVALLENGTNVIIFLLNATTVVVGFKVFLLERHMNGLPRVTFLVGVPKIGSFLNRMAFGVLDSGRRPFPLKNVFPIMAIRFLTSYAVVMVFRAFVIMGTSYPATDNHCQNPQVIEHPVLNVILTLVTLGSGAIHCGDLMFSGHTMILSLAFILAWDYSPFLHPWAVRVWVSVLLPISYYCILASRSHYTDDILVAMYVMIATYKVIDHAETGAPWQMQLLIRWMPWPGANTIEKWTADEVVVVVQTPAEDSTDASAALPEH
As to the kind of experiment: HPTLC based LmjIPCS assay. The format is biochemical. As to conditions: microsomes treated with 5 mM compound; NBD-C6-ceramide and PI. The source says:
CF was originally selected from a screen for inhibitors of the sphingolipid synthase, (L. majIPCS) and to verify that this new analogue retained this profile we applied the same assays as used before. […] To support inhibition of the IPCS, the HPTLC biochemical assay described by Mina et al.[16] was employed. In this, using a microsomal preparation of the L. majIPCS, a fluorescent substrate NBD-C6-ceramide was combined with PI and the two drugs. Following the reaction, the product, NBD-C6-IPC, and residual starting material were separated via HPTLC and analysed by fluorescence spectroscopy.
°C and 5% CO2. Aliquots of resazurin solution (10 μL) were then added and the cells were incubated at 37 °C and 5% CO2 for 4 h. Cell-viability measurement was carried out using a fluorescence plate reader. […]
days. Infected ear thicknesses were measured once or twice a week with a caliper gauge, and the lesion sizes were expressed as the difference between the thickness of infected and non-infected ear. On day 41 animals were sacrificed and the fluorescence measured (485 - 528 nm) and parasite load quantified using a limiting dilution assay (LDA).
Data on lesion progression were analysed for statistical significance by using the Dunnett test as part of the one-way ANOVA (GraphPad Prism 8 software). […]
Product quantification was carried out using a fluorescence plate reader […]

pEC50: −log10 of the molar value.

`C[C@H]1CCCN1CCCO[C@H](c1ccccc1)c1ccc(Cl)cc1` [38l]: the pEC50 in assay [1] was 7.52; in assay [2], 7.39. Further, in assay [3], the “sensitivity in the add-back cell line (PX)” value is on record as “Sensitivity was restored”. Also, the “NBD-C6-IPC product formation (HPTLC)” value in assay [4] is “No product was observed”.
